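These data come from cells grown in 96-well plates and exposed to compound for 48 hours at five concentrations. At the GI50, growth is halved.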 Activity calls are given as the source filed them. Rule as the data show it: active = GI50 up to about 1.1 µM and inactive = higher.
Tests used:
Assay in all cases: DTP human tumour cell line panel, 48 h
SK-MEL-2 = test system: SK-MEL-2
MOLT-4 = test system: MOLT-4
A549 = test system: A549
SN12C = test system: SN12C
UACC-62 = test system: UACC-62
Malme-3M = test system: Malme-3M
ACHN = test system: ACHN
HCC 2998 = test system: HCC 2998
EKVX = test system: EKVX
TK-10 = test system: TK-10
OVCAR-4 = test system: OVCAR-4
LOX IMVI = test system: LOX IMVI
KM12 = test system: KM12
NCI-H522 = test system: NCI-H522
HT-29 = test system: HT-29

Measured: GI50

Cc1cc2c(C)nn(Cc3ccc(Cl)cc3)c2c(C#N)c1C
inactive: SK-MEL-2 > 100 µM | MOLT-4 > 10 µM | A549 > 100 µM | SN12C > 100 µM | UACC-62 > 100 µM | Malme-3M > 100 µM | ACHN > 100 µM | HCC 2998 > 100 µM | EKVX > 100 µM | TK-10 > 100 µM

C=C(c1ccccc1)c1cc2c(=O)[nH]ccc2n1C
inactive: SK-MEL-2 21.5 µM | MOLT-4 27.2 µM | A549 31.7 µM | OVCAR-4 35.5 µM | SN12C 34.2 µM | UACC-62 28.5 µM | LOX IMVI 37.2 µM | KM12 34.4 µM | Malme-3M 30.1 µM | ACHN 35.7 µM | HCC 2998 35 µM | EKVX 39.4 µM | TK-10 55.3 µM | NCI-H522 16.3 µM

C1=CC(=P(c2ccccc2)(c2ccccc2)c2ccccc2)C=C1
inactive: SK-MEL-2 13.3 µM | MOLT-4 5.4 µM | A549 14.1 µM | OVCAR-4 13.9 µM | SN12C 10.3 µM | UACC-62 6.25 µM | LOX IMVI 6.5 µM | KM12 9.31 µM | Malme-3M 4.75 µM | ACHN 14.2 µM | HCC 2998 10.6 µM | EKVX 24.2 µM | HT-29 10.6 µM | TK-10 20.7 µM | NCI-H522 3.13 µM

c1cncc(CSc2nc3ccccc3nc2-c2cccs2)c1
inactive: SK-MEL-2 87.1 µM | MOLT-4 24.8 µM | A549 53.6 µM | OVCAR-4 53.6 µM | SN12C 77.1 µM | LOX IMVI > 100 µM | KM12 48.6 µM | Malme-3M 46.1 µM | ACHN 36.9 µM | HCC 2998 86.1 µM | EKVX 98.4 µM | HT-29 57.1 µM | TK-10 > 100 µM | NCI-H522 33.4 µM

COc1ccc(NC(=O)CCc2cc(-c3ccc(O)c(OC)c3)nc(NC#N)n2)cc1
inactive: SK-MEL-2 > 100 µM | MOLT-4 > 100 µM | A549 > 100 µM | OVCAR-4 > 100 µM | SN12C > 100 µM | UACC-62 > 100 µM | LOX IMVI > 100 µM | KM12 > 100 µM | Malme-3M > 100 µM | ACHN > 100 µM | HCC 2998 > 100 µM | EKVX > 100 µM | HT-29 > 100 µM

Clc1ccc(-c2nnc(-c3nn(-c4ccccc4)c4nc5ccccc5nc34)o2)cc1
inactive: SK-MEL-2 > 100 µM | MOLT-4 26.9 µM | A549 > 100 µM | OVCAR-4 28 µM | SN12C > 100 µM | UACC-62 67.8 µM | LOX IMVI > 100 µM | KM12 > 100 µM | Malme-3M 84.3 µM | ACHN > 100 µM | HCC 2998 > 100 µM | EKVX > 100 µM | HT-29 > 100 µM | TK-10 > 100 µM | NCI-H522 > 100 µM

COc1ccc(C2ON(c3ccccn3)CC=C2C)cc1 (configuration not stated)
inactive: SK-MEL-2 > 100 µM | MOLT-4 96.4 µM | A549 > 100 µM | OVCAR-4 > 100 µM | SN12C > 100 µM | UACC-62 > 100 µM | LOX IMVI > 100 µM | KM12 > 100 µM | Malme-3M > 100 µM | ACHN > 100 µM | HCC 2998 > 100 µM | EKVX > 100 µM | HT-29 > 100 µM | NCI-H522 47.4 µM

COc1ccc(-c2oc(/C=N/c3ccccc3)c([N+](=O)[O-])c2-c2ccc(OC)c(OC)c2)cc1OC
inactive: MOLT-4 > 100 µM | A549 > 100 µM | OVCAR-4 > 100 µM | SN12C > 100 µM | UACC-62 > 100 µM | LOX IMVI > 100 µM | KM12 > 100 µM | Malme-3M > 100 µM | ACHN > 100 µM | HCC 2998 > 100 µM | HT-29 > 100 µM | TK-10 > 100 µM | NCI-H522 > 100 µM

CCN(/N=C1\CC2C=CCN(C2)C(=O)Cc2c1[nH]c1ccccc21)S(=O)(=O)c1ccc(C)cc1 (configuration not stated)
inactive: SK-MEL-2 88.1 µM | MOLT-4 59.4 µM | A549 49.8 µM | OVCAR-4 51.8 µM | SN12C 86.7 µM | UACC-62 38.8 µM | LOX IMVI > 100 µM | KM12 69.8 µM | Malme-3M > 100 µM | ACHN > 100 µM | HCC 2998 > 100 µM | EKVX 40.3 µM | TK-10 > 100 µM | NCI-H522 36.7 µM

C(=C\C(Sc1ccccc1)c1ccccc1)/NNC1=NN=C(c2ccccc2)C(c2ccccc2)N1 (configuration not stated)
inactive: SK-MEL-2 74 µM | MOLT-4 8.2 µM | A549 58.7 µM | OVCAR-4 83 µM | SN12C 55 µM | UACC-62 21.5 µM | LOX IMVI 51.9 µM | KM12 58.3 µM | Malme-3M 50 µM | ACHN 44.7 µM | HCC 2998 27.7 µM | EKVX 32.9 µM | HT-29 12 µM | TK-10 61.2 µM | NCI-H522 33.7 µM
